Results: paper PMC5218480 (PLoS ONE, 2017)

System: MV-4-11 cells
Assay: Gene expression microarray analysis (Affymetrix PrimeView) and GSEA
Type: cell-based, human
Design: RFU PODN (11730768_x_at) / Fold change /veh PODN (11730768_x_at) / RFU LINC00158 (11744669_a_at) / Fold change /veh LINC00158 (11744669_a_at) / RFU DUSP10 (11751237_a_at) / Fold change /veh DUSP10 (11751237_a_at) / RFU ID3 (11757404_x_at) / Fold change /veh ID3 (11757404_x_at) / RFU PLEKHG5 (11737974_s_at) / Fold change /veh PLEKHG5 (11737974_s_at) / RFU LRRC4B (11730491_at) / Fold change /veh LRRC4B (11730491_at) / RFU GIMAP4 (11747438_a_at) / Fold change /veh GIMAP4 (11747438_a_at) / RFU KRT8 (11758183_x_at) / Fold change /veh KRT8 (11758183_x_at) / RFU CNN1 (11734310_a_at) / Fold change /veh CNN1 (11734310_a_at) / RFU VPS37D (11726825_at) / Fold change /veh VPS37D (11726825_at) / RFU C10orf10 (11716522_x_at) / Fold change /veh C10orf10 (11716522_x_at) / RFU KIR2DL2 /// KIR2DL4 /// KIR2DL5A /// KIR2DL5B /// KIR2DS1 /// KIR2DS2 /// KIR2DS3 /// KIR2DS4 /// KIR3DL3 /// KIR3DL3 /// KIR3DS1 (11738374_at) / Fold change /veh KIR2DL2 /// KIR2DL4 /// KIR2DL5A /// KIR2DL5B /// KIR2DS1 /// KIR2DS2 /// KIR2DS3 /// KIR2DS4 /// KIR3DL3 /// KIR3DL3 /// KIR3DS1 (11738374_at) / RFU C1QL1 (11718748_at) / Fold change /veh C1QL1 (11718748_at) / RFU TMPRSS4 (11747572_a_at) / Fold change /veh TMPRSS4 (11747572_a_at) / RFU HAMP (11756126_x_at) / Fold change /veh HAMP (11756126_x_at) / RFU RNFT2 (11725882_a_at) / Fold change /veh RNFT2 (11725882_a_at) / RFU NR4A2 (11747474_a_at) / Fold change /veh NR4A2 (11747474_a_at) / RFU ABCC12 (11746883_a_at) / Fold change /veh ABCC12 (11746883_a_at) / RFU TMEM136 (11760407_x_at) / Fold change /veh TMEM136 (11760407_x_at) / RFU CLDN22 /// WWC2 (11732394_at) / Fold change /veh CLDN22 /// WWC2 (11732394_at) / RFU HLA-DPB1 (11760878_x_at) / Fold change /veh HLA-DPB1 (11760878_x_at) / RFU SPINT1 (11716480_a_at) / Fold change /veh SPINT1 (11716480_a_at) / RFU GAP43 (11754022_s_at) / Fold change /veh GAP43 (11754022_s_at) / RFU A4GNT (11735810_at) / Fold change /veh A4GNT (11735810_at) / RFU PRB3 (11715151_x_at) / Fold change /veh PRB3 (11715151_x_at) / RFU TUBB4B (11761932_at) / Fold change /veh TUBB4B (11761932_at) / RFU CAPN14 (11732068_a_at) / Fold change /veh CAPN14 (11732068_a_at) / RFU TMCC2 (11721928_a_at) / Fold change /veh TMCC2 (11721928_a_at) / RFU IRGQ (11745062_a_at) / Fold change /veh IRGQ (11745062_a_at) / RFU FAM174B (11720279_a_at) / Fold change /veh FAM174B (11720279_a_at) / RFU TMPRSS4 (11748680_a_at) / Fold change /veh TMPRSS4 (11748680_a_at) / RFU FAM212B (11763350_a_at) / Fold change /veh FAM212B (11763350_a_at) / RFU PLEKHG5 (11743358_a_at) / Fold change /veh PLEKHG5 (11743358_a_at) / RFU ZSCAN30 (11745921_a_at) / Fold change /veh ZSCAN30 (11745921_a_at) / RFU CMKLR1 (11741424_a_at) / Fold change /veh CMKLR1 (11741424_a_at) / RFU LOC101060620 /// MAPK8IP1 (11723275_at) / Fold change /veh LOC101060620 /// MAPK8IP1 (11723275_at) / RFU SPTSSB (11747773_x_at) / Fold change /veh SPTSSB (11747773_x_at) / RFU PRSS12 (11739890_at) / Fold change /veh PRSS12 (11739890_at) / RFU BIN1 (11741810_x_at) / Fold change /veh BIN1 (11741810_x_at) / RFU WNT11 (11732464_a_at) / Fold change /veh WNT11 (11732464_a_at) / RFU C10orf10 (11716521_a_at) / Fold change /veh C10orf10 (11716521_a_at) / RFU C5orf56 (11738089_at) / Fold change /veh C5orf56 (11738089_at) / RFU CYB561 (11721691_x_at) / Fold change /veh CYB561 (11721691_x_at) / RFU ANKRD19P (11752326_a_at) / Fold change /veh ANKRD19P (11752326_a_at) / RFU OR2T12 /// OR2T33 /// OR2T8 (11738714_s_at) / Fold change /veh OR2T12 /// OR2T33 /// OR2T8 (11738714_s_at) / RFU VCAN (11748164_a_at) / Fold change /veh VCAN (11748164_a_at) / RFU JSRP1 (11732532_at) / Fold change /veh JSRP1 (11732532_at) / RFU KRTAP10-11 (11738290_x_at) / Fold change /veh KRTAP10-11 (11738290_x_at) / RFU MYO3A (11730013_a_at) / Fold change /veh MYO3A (11730013_a_at) / RFU EBF3 (11725865_a_at) / Fold change /veh EBF3 (11725865_a_at) / RFU CAMK2N1 (11719241_x_at) / Fold change /veh CAMK2N1 (11719241_x_at) / RFU C5orf56 (11738088_a_at) / Fold change /veh C5orf56 (11738088_a_at) / RFU OLFML3 (11715873_a_at) / Fold change /veh OLFML3 (11715873_a_at) / RFU LOC100653217 /// NTM (11731650_a_at) / Fold change /veh LOC100653217 /// NTM (11731650_a_at) / RFU MAPK11 (11762145_a_at) / Fold change /veh MAPK11 (11762145_a_at) / RFU FIZ1 (11724087_x_at) / Fold change /veh FIZ1 (11724087_x_at) / RFU OASL (11726364_x_at) / Fold change /veh OASL (11726364_x_at) / RFU SOX15 (11748057_x_at) / Fold change /veh SOX15 (11748057_x_at) / RFU CD79A (11719716_a_at) / Fold change /veh CD79A (11719716_a_at) / RFU HIST1H1D (11736915_at) / Fold change /veh HIST1H1D (11736915_at) / RFU CASKIN2 (11723855_a_at) / Fold change /veh CASKIN2 (11723855_a_at) / RFU LOC730098 (11760151_x_at) / Fold change /veh LOC730098 (11760151_x_at) / RFU OR4N2 (11742367_at) / Fold change /veh OR4N2 (11742367_at) / RFU PRRT2 (11749266_a_at) / Fold change /veh PRRT2 (11749266_a_at) / RFU SNX32 (11753110_a_at) / Fold change /veh SNX32 (11753110_a_at) / RFU CDHR5 (11726645_a_at) / Fold change /veh CDHR5 (11726645_a_at) / RFU RCAN1 (11760418_a_at) / Fold change /veh RCAN1 (11760418_a_at) / RFU FAM167A (11723789_a_at) / Fold change /veh FAM167A (11723789_a_at) / RFU FAM26E (11764081_at) / Fold change /veh FAM26E (11764081_at) / RFU ISYNA1 (11749810_s_at) / Fold change /veh ISYNA1 (11749810_s_at) / RFU ACY1 (11761880_at) / Fold change /veh ACY1 (11761880_at) / RFU 11764098_at / Fold change /veh 11764098_at / RFU SAMD14 (11745864_x_at) / Fold change /veh SAMD14 (11745864_x_at) / RFU NPB (11741838_a_at) / Fold change /veh NPB (11741838_a_at) / RFU TMPRSS6 (11731388_a_at) / Fold change /veh TMPRSS6 (11731388_a_at) / RFU KRTAP10-2 (11738614_at) / Fold change /veh KRTAP10-2 (11738614_at) / RFU ARHGAP8 /// PRR5-ARHGAP8 (11727945_x_at) / Fold change /veh ARHGAP8 /// PRR5-ARHGAP8 (11727945_x_at) / RFU KRTAP5-7 /// NADSYN1 (11734609_at) / Fold change /veh KRTAP5-7 /// NADSYN1 (11734609_at) / RFU RASL12 (11751679_a_at) / Fold change /veh RASL12 (11751679_a_at) / RFU CDKN2B (11736163_a_at) / Fold change /veh CDKN2B (11736163_a_at) / RFU PRF1 (11729649_at) / Fold change /veh PRF1 (11729649_at) / RFU, ZNF638 /// ZNF638-IT1 / Fold change vs veh, ZNF638 /// ZNF638-IT1 / RFU, PANK3 / Fold change vs veh, PANK3 / RFU, SH3YL1 / Fold change vs veh, SH3YL1 / RFU, ZEB2 / Fold change vs veh, ZEB2 / RFU, NRIP1 / Fold change vs veh, NRIP1 / RFU, PTTG1IP / Fold change vs veh, PTTG1IP / RFU, CAPN2 / Fold change vs veh, CAPN2 / RFU, MED14 / Fold change vs veh, MED14 / RFU, SNORA58 / Fold change vs veh, SNORA58 / RFU, C1orf63 / Fold change vs veh, C1orf63 / RFU, LRRFIP1 / Fold change vs veh, LRRFIP1 / RFU, NDUFAF7 / Fold change vs veh, NDUFAF7 / RFU, SLC12A2 / Fold change vs veh, SLC12A2 / RFU, IBTK / Fold change vs veh, IBTK / RFU, ESF1 / Fold change vs veh, ESF1 / Fold change vs veh, TMEM50B / RFU, TAOK1 / Fold change vs veh, TAOK1 / RFU, ACBD3 / Fold change vs veh, ACBD3 / RFU, TMA16 / Fold change vs veh, TMA16 / RFU, RWDD3 / Fold change vs veh, RWDD3 / RFU, BCAT1 / Fold change vs veh, BCAT1 / RFU, EDEM3 / Fold change vs veh, EDEM3 / RFU, TMEM33 / Fold change vs veh, TMEM33 / RFU, WDR75 / Fold change vs veh, WDR75 / RFU, AHCTF1 / Fold change vs veh, AHCTF1 / RFU, TFRC / Fold change vs veh, TFRC / RFU, ZDHHC17 / Fold change vs veh, ZDHHC17 / RFU, NOM1 / Fold change vs veh, NOM1 / RFU, ARL8B / Fold change vs veh, ARL8B / RFU, ZBTB11 / Fold change vs veh, ZBTB11 / RFU, TAMM41 / Fold change vs veh, TAMM41 / RFU, KIAA1704 /// LOC100996395 / Fold change vs veh, KIAA1704 /// LOC100996395 / RFU, ING1 / Fold change vs veh, ING1 / RFU, TRMT61B / Fold change vs veh, TRMT61B / RFU, FUBP3 / Fold change vs veh, FUBP3 / RFU, TP53 / Fold change vs veh, TP53 / RFU, TNKS2 / Fold change vs veh, TNKS2 / RFU, ZFP14 / Fold change vs veh, ZFP14 / RFU, ACTR2 / Fold change vs veh, ACTR2 / RFU, PPP3R1 / Fold change vs veh, PPP3R1 / RFU, PIK3R1 / Fold change vs veh, PIK3R1 / RFU, HNRNPA1 / Fold change vs veh, HNRNPA1 / RFU, RNF170 / Fold change vs veh, RNF170 / RFU, ZNF28 / Fold change vs veh, ZNF28 / RFU, RNGTT / Fold change vs veh, RNGTT / RFU, OGT / Fold change vs veh, OGT / RFU, BRD1 / Fold change vs veh, BRD1 / RFU, MARS / Fold change vs veh, MARS / RFU, ZNF655 / Fold change vs veh, ZNF655 / RFU, FAHD1 / Fold change vs veh, FAHD1 / RFU, BDP1 / Fold change vs veh, BDP1 / RFU, LRRCC1 / Fold change vs veh, LRRCC1 / RFU, ARID1A / Fold change vs veh, ARID1A / RFU, ZNF146 / Fold change vs veh, ZNF146 / RFU, ZNF330 / Fold change vs veh, ZNF330 / RFU, GPN3 / Fold change vs veh, GPN3 / RFU, C9orf123 / Fold change vs veh, C9orf123 / RFU, N4BP2L2 / Fold change vs veh, N4BP2L2 / RFU, ARFIP1 / Fold change vs veh, ARFIP1 / RFU, FAM179B / Fold change vs veh, FAM179B / RFU, BCL10 / Fold change vs veh, BCL10 / RFU, UHRF1BP1L / Fold change vs veh, UHRF1BP1L / RFU, BET1 / Fold change vs veh, BET1 / RFU, CNOT2 / Fold change vs veh, CNOT2 / RFU, ZNF268 / Fold change vs veh, ZNF268 / Fold change vs veh, ZNF507 / RFU, DGCR2 / Fold change vs veh, DGCR2 / RFU, WDSUB1 / Fold change vs veh, WDSUB1 / Fold change vs veh, HSP90B1 /// MIR3652 / RFU, ADSS / Fold change vs veh, ADSS / RFU, GK / Fold change vs veh, GK / RFU, ZNF148 / Fold change vs veh, ZNF148 / RFU, TAF9 / Fold change vs veh, TAF9 / RFU, SLC1A5 / Fold change vs veh, SLC1A5 / RFU, SLMO2 / Fold change vs veh, SLMO2 / RFU, ABCC4 / Fold change vs veh, ABCC4 / RFU, LOC101060439 /// RAP1B / Fold change vs veh, LOC101060439 /// RAP1B / RFU, RFX7 / Fold change vs veh, RFX7 / RFU, GTPBP10 / Fold change vs veh, GTPBP10 / RFU, CNEP1R1 / Fold change vs veh, CNEP1R1 / RFU, BIVM-ERCC5 /// ERCC5 / Fold change vs veh, BIVM-ERCC5 /// ERCC5 / RFU, ILF3 / Fold change vs veh, ILF3 / RFU 11762660_at / Fold change /veh 11762660_at / RFU VCAN (11757783_s_at) / Fold change /veh VCAN (11757783_s_at) / RFU DDX43 (11728927_at) / Fold change /veh DDX43 (11728927_at) / RFU KRT8 (11758188_x_at) / Fold change /veh KRT8 (11758188_x_at) / RFU NKD1 (11759106_at) / Fold change /veh NKD1 (11759106_at) / RFU SRD5A1 (11742802_a_at) / Fold change /veh SRD5A1 (11742802_a_at) / RFU TPSAB1 /// TPSB2 (11721975_s_at) / Fold change /veh TPSAB1 /// TPSB2 (11721975_s_at) / RFU GSTM3 (11746129_a_at) / Fold change /veh GSTM3 (11746129_a_at) / RFU IL23R (11737362_x_at) / Fold change /veh IL23R (11737362_x_at) / RFU TMEM51 (11727254_a_at) / Fold change /veh TMEM51 (11727254_a_at) / RFU PIWIL2 (11732686_x_at) / Fold change /veh PIWIL2 (11732686_x_at) / RFU ORM1 (11744905_x_at) / Fold change /veh ORM1 (11744905_x_at) / RFU CCDC152 (11743942_at) / Fold change /veh CCDC152 (11743942_at) / RFU ECM1 (11717891_a_at) / Fold change /veh ECM1 (11717891_a_at) / RFU IL23R (11748794_a_at) / Fold change /veh IL23R (11748794_a_at) / RFU TNFAIP8L3 (11732012_x_at) / Fold change /veh TNFAIP8L3 (11732012_x_at) / RFU MBOAT4 (11741988_at) / Fold change /veh MBOAT4 (11741988_at) / RFU 11764193_at / Fold change /veh 11764193_at / RFU TMEM53 (11763286_at) / Fold change /veh TMEM53 (11763286_at) / RFU MAGEB2 (11727129_at) / Fold change /veh MAGEB2 (11727129_at) / RFU TMEM200A (11744735_a_at) / Fold change /veh TMEM200A (11744735_a_at) / RFU CCDC152 (11751479_a_at) / Fold change /veh CCDC152 (11751479_a_at) / RFU FAM211A (11726209_a_at) / Fold change /veh FAM211A (11726209_a_at) / RFU RGS16 (11746705_a_at) / Fold change /veh RGS16 (11746705_a_at) / RFU VCAN (11755009_s_at) / Fold change /veh VCAN (11755009_s_at) / RFU RHOB (11743442_s_at) / Fold change /veh RHOB (11743442_s_at) / RFU RGS16 (11720943_a_at) / Fold change /veh RGS16 (11720943_a_at) / RFU RGS16 (11720944_at) / Fold change /veh RGS16 (11720944_at) / RFU, VPS4B / Fold change vs veh, VPS4B / RFU, CREB1 / Fold change vs veh, CREB1 / RFU, DNAJC13 / Fold change vs veh, DNAJC13 / RFU, GNAQ / Fold change vs veh, GNAQ / RFU, CDK5R1 / Fold change vs veh, CDK5R1 / RFU, ZRANB3 / Fold change vs veh, ZRANB3 / RFU, CUL4A / Fold change vs veh, CUL4A / RFU, CCNY / Fold change vs veh, CCNY / RFU, UFL1 / Fold change vs veh, UFL1 / RFU, COG3 / Fold change vs veh, COG3 / RFU, DIAPH2 / Fold change vs veh, DIAPH2 / RFU, SKA2 / Fold change vs veh, SKA2 / RFU, AFF3 / Fold change vs veh, AFF3 / RFU, LMF1 / Fold change vs veh, LMF1 / RFU, IPO11 / Fold change vs veh, IPO11 / RFU, DFFB / Fold change vs veh, DFFB / RFU, FOXP1 / Fold change vs veh, FOXP1 / RFU, CARD8 / Fold change vs veh, CARD8 / RFU, STRN3 / Fold change vs veh, STRN3 / RFU, ADK / Fold change vs veh, ADK / RFU, RASSF2 / Fold change vs veh, RASSF2 / RFU, WIPF1 / Fold change vs veh, WIPF1 / RFU, LARP1B / Fold change vs veh, LARP1B / RFU, RASA1 / Fold change vs veh, RASA1 / RFU, RB1 / Fold change vs veh, RB1 / RFU, PPFIA1 / Fold change vs veh, PPFIA1 / RFU, MAT2A / Fold change vs veh, MAT2A / RFU, CCT5 / Fold change vs veh, CCT5 / RFU, WDR92 / Fold change vs veh, WDR92 / RFU, CUX1 / Fold change vs veh, CUX1 / RFU, TTC7A / Fold change vs veh, TTC7A / RFU, TMEM135 / Fold change vs veh, TMEM135 / RFU, DEPTOR / Fold change vs veh, DEPTOR / RFU, CPM / Fold change vs veh, CPM / RFU, DNAJB6 / Fold change vs veh, DNAJB6 / RFU, CACNA2D3 / Fold change vs veh, CACNA2D3 / RFU, DTX4 / Fold change vs veh, DTX4 / RFU, TFCP2 / Fold change vs veh, TFCP2 / RFU, GMCL1 /// GMCL1P1 / Fold change vs veh, GMCL1 /// GMCL1P1 / RFU, AEBP2 / Fold change vs veh, AEBP2 / RFU, SNHG1 /// SNORD22 /// SNORD25 /// SNORD26 /// SNORD27 /// SNORD28 /// SNORD29 /// SNORD31 / Fold change vs veh, SNHG1 /// SNORD22 /// SNORD25 /// SNORD26 /// SNORD27 /// SNORD28 /// SNORD29 /// SNORD31 / Fold change (Aza/veh), C12orf56 (ProbeSet 11735607_a_at) / Fold change (ACY-1035/veh), C12orf56 (ProbeSet 11735607_a_at) / Fold change (Aza/veh), FGFR1OP (ProbeSet 11751329_s_at) / Fold change (ACY-1035/veh), FGFR1OP (ProbeSet 11751329_s_at) / Fold change (Aza/veh), VPS36 (ProbeSet 11739960_a_at) / Fold change (ACY-1035/veh), VPS36 (ProbeSet 11739960_a_at) / RFU SYPL1 (11715823_x_at) / Fold change /veh SYPL1 (11715823_x_at) / RFU IGFBP7 (11715501_s_at) / Fold change /veh IGFBP7 (11715501_s_at) / RFU REEP3 (11722064_at) / Fold change /veh REEP3 (11722064_at) / RFU IGLL1 (11728026_x_at) / Fold change /veh IGLL1 (11728026_x_at): dose or concentration left out as unconfirmed
Details: ProbeSet 11758919_x_at; LIST D

## Nc1ccc(-c2cccs2)cc1NC(=O)c1ccc2c(c1)cc(C1CC1)n2CCN1CCOCC1 [ACY-1035]
  RFU, TFCP2: 87.13 RFU
